Results reported in ChEMBL document CHEMBL5678818, “Discovery of potent SOS1 inhibitors that block RAS activation via disruption of the RAS-SOS1 interaction” (Proc Natl Acad Sci U S A, 2019).

Key:
[1] = biological target: T1, Aurora kinase C (Homo sapiens) (UniProt Q9UQB9); experiment: Inhibition of AURKC (unknown origin) assessed as residual activity at 1000 nM by KINOMEscan analysis relative to control
T1 sequence (whole entry): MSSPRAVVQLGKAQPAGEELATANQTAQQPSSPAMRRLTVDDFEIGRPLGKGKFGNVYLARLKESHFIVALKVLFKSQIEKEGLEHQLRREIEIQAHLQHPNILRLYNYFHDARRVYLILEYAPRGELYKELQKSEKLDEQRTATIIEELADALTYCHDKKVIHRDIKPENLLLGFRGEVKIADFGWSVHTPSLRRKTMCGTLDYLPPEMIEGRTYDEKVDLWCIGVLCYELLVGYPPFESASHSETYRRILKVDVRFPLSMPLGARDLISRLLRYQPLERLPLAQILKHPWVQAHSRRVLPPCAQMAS

[2] = biological target: Bone morphogenetic protein receptor type-1B (Homo sapiens) (UniProt O00238); experiment: Inhibition of BMPR1B (unknown origin) assessed as residual activity at 1000 nM by KINOMEscan analysis relative to control
Sequence of Bone morphogenetic protein receptor type-1B (Homo sapiens) (O00238 whole entry): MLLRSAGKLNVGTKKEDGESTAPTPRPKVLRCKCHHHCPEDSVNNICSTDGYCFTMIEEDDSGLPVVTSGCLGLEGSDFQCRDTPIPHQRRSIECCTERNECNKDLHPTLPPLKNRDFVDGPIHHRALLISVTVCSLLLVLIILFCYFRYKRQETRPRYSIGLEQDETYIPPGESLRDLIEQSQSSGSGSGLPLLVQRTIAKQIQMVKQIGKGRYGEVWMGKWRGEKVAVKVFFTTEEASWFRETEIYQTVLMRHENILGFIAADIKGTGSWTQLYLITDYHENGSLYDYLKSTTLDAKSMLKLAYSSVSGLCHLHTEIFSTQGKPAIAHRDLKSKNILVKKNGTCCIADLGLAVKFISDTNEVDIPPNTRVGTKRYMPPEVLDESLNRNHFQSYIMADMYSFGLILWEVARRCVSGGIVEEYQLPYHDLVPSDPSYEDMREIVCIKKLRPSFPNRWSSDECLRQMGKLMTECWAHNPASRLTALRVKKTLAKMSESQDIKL

[3] = biological target: T2, Mitogen-activated protein kinase 15 (Homo sapiens) (UniProt Q8TD08); experiment: Inhibition of ERK8 (unknown origin) assessed as residual activity at 1000 nM by KINOMEscan analysis relative to control
T2 sequence (whole entry): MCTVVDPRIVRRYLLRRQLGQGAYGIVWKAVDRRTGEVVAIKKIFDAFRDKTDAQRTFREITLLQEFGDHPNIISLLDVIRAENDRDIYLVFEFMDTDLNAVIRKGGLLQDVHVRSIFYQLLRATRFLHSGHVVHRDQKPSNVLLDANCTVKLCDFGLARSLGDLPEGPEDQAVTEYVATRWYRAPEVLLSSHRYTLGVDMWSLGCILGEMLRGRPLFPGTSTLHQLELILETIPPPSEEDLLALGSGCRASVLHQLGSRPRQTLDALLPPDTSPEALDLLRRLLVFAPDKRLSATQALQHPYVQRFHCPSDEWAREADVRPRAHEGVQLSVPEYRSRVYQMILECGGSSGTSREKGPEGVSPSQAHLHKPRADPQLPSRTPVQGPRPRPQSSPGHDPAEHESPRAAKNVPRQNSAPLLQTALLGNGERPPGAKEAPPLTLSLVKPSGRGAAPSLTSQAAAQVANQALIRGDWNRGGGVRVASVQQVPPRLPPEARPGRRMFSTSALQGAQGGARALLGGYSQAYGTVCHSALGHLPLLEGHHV

[4] = biological target: G protein-coupled receptor kinase 4 (Homo sapiens) (UniProt P32298); experiment: Inhibition of GRK4 (unknown origin) assessed as residual activity at 1000 nM by KINOMEscan analysis relative to control
Sequence of G protein-coupled receptor kinase 4 (Homo sapiens) (P32298 whole entry, looked up): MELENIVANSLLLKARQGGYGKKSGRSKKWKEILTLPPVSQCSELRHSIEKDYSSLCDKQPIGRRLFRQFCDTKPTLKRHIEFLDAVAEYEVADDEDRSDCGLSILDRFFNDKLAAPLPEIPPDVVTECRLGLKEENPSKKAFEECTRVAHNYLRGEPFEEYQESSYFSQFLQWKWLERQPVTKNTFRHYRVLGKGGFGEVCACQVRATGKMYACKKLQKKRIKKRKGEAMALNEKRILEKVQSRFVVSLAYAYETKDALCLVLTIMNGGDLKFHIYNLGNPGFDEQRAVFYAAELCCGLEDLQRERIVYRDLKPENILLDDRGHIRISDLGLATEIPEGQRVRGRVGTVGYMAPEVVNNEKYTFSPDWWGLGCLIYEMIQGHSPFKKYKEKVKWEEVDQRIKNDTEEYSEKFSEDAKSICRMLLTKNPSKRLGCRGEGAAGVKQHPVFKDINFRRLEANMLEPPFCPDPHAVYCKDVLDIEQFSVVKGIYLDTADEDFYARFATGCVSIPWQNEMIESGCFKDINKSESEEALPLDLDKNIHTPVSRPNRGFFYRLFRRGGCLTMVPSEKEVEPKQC

[5] = biological target: T3, Serine/threonine-protein kinase RIO1 (Homo sapiens) (UniProt Q9BRS2); experiment: Inhibition of RIOK1 (unknown origin) assessed as residual activity at 1000 nM by KINOMEscan analysis relative to control
T3 sequence (whole entry): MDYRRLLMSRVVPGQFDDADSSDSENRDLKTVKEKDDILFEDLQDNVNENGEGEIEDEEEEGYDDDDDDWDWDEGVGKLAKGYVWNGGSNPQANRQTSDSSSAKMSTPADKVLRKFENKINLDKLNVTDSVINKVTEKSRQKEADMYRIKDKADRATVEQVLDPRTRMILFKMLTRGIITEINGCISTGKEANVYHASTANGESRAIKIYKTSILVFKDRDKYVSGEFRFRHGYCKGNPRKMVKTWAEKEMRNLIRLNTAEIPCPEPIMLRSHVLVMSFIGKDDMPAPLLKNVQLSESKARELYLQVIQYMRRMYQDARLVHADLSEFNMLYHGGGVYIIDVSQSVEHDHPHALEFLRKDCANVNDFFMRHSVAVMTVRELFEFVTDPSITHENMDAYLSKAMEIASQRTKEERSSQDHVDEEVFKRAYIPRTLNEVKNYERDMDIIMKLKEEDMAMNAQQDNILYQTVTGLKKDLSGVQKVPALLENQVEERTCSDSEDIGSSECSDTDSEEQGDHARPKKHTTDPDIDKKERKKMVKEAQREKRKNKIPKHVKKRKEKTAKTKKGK

[6] = biological target: Ribosomal protein S6 kinase alpha-6 (Homo sapiens) (UniProt Q9UK32); experiment: Inhibition of C-terminal RSK4 kinetic domain 2 (unknown origin) assessed as residual activity at 1000 nM by KINOMEscan analysis relative to control
Sequence of Ribosomal protein S6 kinase alpha-6 (Homo sapiens) (Q9UK32 whole entry, the tested form may be a part): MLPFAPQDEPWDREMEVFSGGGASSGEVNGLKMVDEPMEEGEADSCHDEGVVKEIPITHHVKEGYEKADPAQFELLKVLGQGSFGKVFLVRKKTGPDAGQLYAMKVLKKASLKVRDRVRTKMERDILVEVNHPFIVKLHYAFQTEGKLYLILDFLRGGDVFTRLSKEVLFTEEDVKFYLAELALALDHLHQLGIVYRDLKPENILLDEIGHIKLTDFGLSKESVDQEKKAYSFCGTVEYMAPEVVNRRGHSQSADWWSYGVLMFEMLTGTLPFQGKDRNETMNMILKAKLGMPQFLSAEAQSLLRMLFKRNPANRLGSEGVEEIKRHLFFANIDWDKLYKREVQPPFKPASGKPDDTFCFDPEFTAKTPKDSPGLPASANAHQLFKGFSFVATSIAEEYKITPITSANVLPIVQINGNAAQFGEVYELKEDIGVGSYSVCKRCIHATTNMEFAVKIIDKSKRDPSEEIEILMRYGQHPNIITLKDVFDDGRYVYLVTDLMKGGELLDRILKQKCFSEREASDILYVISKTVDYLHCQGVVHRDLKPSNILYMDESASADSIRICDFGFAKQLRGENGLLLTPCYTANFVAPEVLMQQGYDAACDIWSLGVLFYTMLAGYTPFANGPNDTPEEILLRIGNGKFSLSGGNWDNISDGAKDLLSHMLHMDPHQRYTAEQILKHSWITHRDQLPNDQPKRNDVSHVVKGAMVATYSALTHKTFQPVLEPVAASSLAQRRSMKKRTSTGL

[7] = biological target: T4, Serine/threonine-protein kinase Sgk3 (Homo sapiens) (UniProt Q96BR1); experiment: Inhibition of SGK3 (unknown origin) assessed as residual activity at 1000 nM by KINOMEscan analysis relative to control
T4 sequence (whole entry): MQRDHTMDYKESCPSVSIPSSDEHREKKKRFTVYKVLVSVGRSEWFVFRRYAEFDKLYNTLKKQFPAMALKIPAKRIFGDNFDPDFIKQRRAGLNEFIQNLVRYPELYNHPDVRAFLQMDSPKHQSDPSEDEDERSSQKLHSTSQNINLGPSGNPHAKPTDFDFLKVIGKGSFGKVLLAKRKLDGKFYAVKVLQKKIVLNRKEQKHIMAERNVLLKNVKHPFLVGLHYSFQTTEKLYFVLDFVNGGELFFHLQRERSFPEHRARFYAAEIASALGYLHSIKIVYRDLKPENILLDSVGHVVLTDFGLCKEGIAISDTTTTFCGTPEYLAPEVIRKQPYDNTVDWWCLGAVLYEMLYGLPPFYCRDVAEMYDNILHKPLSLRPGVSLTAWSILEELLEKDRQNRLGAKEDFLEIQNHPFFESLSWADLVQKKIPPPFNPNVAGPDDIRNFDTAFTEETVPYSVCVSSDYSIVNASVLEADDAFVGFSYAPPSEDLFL

[8] = biological target: Mitogen-activated protein kinase kinase kinase 14 (Homo sapiens) (UniProt Q99558); experiment: Inhibition of NIK (unknown origin) assessed as residual activity at 1000 nM by KINOMEscan analysis relative to control
Sequence of Mitogen-activated protein kinase kinase kinase 14 (Homo sapiens) (Q99558 whole entry, looked up): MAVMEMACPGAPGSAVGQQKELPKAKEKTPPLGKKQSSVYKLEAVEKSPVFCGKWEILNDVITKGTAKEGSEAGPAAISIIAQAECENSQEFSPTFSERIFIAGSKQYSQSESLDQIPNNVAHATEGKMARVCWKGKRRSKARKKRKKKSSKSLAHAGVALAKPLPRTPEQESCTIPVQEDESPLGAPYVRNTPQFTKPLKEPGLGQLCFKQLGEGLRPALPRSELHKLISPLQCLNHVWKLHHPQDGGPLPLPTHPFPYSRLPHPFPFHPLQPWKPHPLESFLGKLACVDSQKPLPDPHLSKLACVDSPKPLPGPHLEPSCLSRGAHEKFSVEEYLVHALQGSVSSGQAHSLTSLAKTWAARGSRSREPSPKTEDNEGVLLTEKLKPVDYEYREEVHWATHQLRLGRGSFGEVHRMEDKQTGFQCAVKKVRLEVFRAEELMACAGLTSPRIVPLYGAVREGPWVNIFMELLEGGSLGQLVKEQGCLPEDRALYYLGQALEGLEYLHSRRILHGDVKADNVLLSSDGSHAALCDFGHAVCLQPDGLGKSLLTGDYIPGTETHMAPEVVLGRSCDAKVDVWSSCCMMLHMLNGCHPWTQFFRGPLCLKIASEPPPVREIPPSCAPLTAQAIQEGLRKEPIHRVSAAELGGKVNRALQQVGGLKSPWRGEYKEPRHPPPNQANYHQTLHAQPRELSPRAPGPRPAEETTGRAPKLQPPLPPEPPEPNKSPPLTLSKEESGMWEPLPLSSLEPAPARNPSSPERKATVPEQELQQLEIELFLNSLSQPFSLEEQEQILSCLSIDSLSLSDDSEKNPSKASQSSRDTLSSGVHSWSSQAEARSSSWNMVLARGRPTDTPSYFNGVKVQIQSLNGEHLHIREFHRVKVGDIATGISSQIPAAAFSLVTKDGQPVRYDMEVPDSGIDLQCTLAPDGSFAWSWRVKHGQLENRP

Row | Compound | Activity [1] [%] | Activity [2] [%] | Activity [3] [%] | Activity [4] [%] | Activity [5] [%] | Activity [6] [%] | Activity [7] [%] | Activity [8] [%]
1 | COc1cc2ncnc(N[C@H](C)c3cccc4ccccc34)c2cc1OC | 100 | 94 | 100 | 100 | 82 | 95 | 100 | 91
2 | COc1cc2nc(C)nc(N[C@H](C)c3cccc(-c4cn[nH]c4)c3)c2cc1OC | 74 | 98 | 60 | 95 | 49 | 53 | 90 | 88
